Consider 42 compounds from PMC5681660, “Reduced hepatitis B and D viral entry using clinically applied drugs as novel inhibitors of the bile acid transporter NTCP” (Scientific Reports, 2017).

Counter-ions that a name gives are not always drawn.

This assay deals with T1, human NTCP (Homo sapiens, UniProt Q14973).
T1 sequence (Q14973 1-349): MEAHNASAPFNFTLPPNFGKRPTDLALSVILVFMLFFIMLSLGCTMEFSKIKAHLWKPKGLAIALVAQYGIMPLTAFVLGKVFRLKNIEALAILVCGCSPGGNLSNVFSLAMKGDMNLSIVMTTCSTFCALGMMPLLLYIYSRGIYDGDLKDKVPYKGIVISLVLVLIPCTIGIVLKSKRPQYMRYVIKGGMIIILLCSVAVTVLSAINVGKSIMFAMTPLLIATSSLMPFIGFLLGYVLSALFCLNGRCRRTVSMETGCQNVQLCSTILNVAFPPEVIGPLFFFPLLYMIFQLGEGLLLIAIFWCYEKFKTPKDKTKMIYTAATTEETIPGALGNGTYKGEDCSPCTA
Description: Screening taurocholate uptake assay (96-well, [14C]taurocholate, 10 µM drug). Conditions: for B-score functional assay: 10 µM drug; for position among the hits of the screen (combined ranking of both screening assays): 1280 drugs at 10 µM, TC uptake and Myrcludex B binding screens combined.

Setting [1] is: combined ranking of functional and binding screening assays.
The mark [2] stands for this setting: ranking score beside the functional and binding assay B-scores of the screen.
[3] abbreviates: ranking over the functional and the binding screening assay.
[4] abbreviates: screening taurocholate uptake, B-score.

With `COc1ccccc1OCC(O)CO` (stereo not shown) [Guaifenesin], under setting [1], the Ranking score was 466.326. The compound also displayed a B-score functional assay (screening taurocholate uptake) of 0.275.
`Cl.O.O.O=C1CC[C@@]2(O)[C@H]3Cc4ccc(O)c5c4[C@@]2(CCN3CC2CC2)[C@H]1O5` [Naltrexone hydrochloride dihydrate] showed a Ranking score under setting [2] of 809.543.
The compound `CC1(C)[C@@H](OC(=O)CCC(=O)O)CC[C@]2(C)[C@H]3C(=O)C=C4[C@@H]5C[C@@](C)(C(=O)O)CC[C@]5(C)CC[C@@]4(C)[C@]3(C)CC[C@@H]12` [Carbenoxolone disodium salt] registered a Ranking score under setting [3] of 79.4984. The compound further returned a B-score functional assay (screening taurocholate uptake) of -5.734.
On to `c1ccc2c(c1)Nc1ccccc1S2` [Phenothiazine], for which, under setting [1], the Ranking score is reported as 553.972. This compound also registered a B-score functional assay (screening taurocholate uptake) of -0.168.
Regarding `C[C@H](CCC(=O)O)[C@H]1CC[C@H]2[C@@H]3CC[C@@H]4C[C@H](O)CC[C@]4(C)[C@H]3CC[C@]12C` [litocholic acid], the “position among the hits of the screen (combined ranking of both screening assays)” value (“position among the hits of the screen” for short) was at most 150.
With `C/C(=C(\CCOP(=O)(O)O)SC(=O)c1ccccc1)N(C=O)Cc1cnc(C)nc1N` [Benfotiamine], the Ranking score under setting [1] was determined as 532.072. For the same compound, the B-score functional assay (screening taurocholate uptake) is -0.56.
In turn, `Cc1c(O)cccc1C(=O)N[C@@H](CSc1ccccc1)[C@H](O)CN1C[C@H]2CCCC[C@H]2C[C@H]1C(=O)NC(C)(C)C` [Nelfinavir mesylate] yielded a Ranking score under setting [3] of 28.9828. The same compound gave a B-score functional assay (screening taurocholate uptake) of -3.419.
`Cn1c(NCCN(CCO)CCCc2ccc([N+](=O)[O-])cc2)cc(=O)n(C)c1=O` [Nifekalant]: the Ranking score under setting [1] was 503.354. The B-score functional assay (screening taurocholate uptake) is 0.451.
For `c1ccc(-c2ccc(C(c3ccccc3)n3ccnc3)cc2)cc1` (stereo not shown) [Bifonazole], under setting [3], the Ranking score is 164.499. The compound further displayed a B-score functional assay (screening taurocholate uptake) of -2.294.
`C=C1C[C@@H]2[C@H](CC[C@]3(C)C(=O)CC[C@@H]23)[C@@]2(C)C=CC(=O)C=C12` [Exemestane]: the Ranking score under setting [1] is listed as 568.146. Also, the B-score functional assay (screening taurocholate uptake) is on record as -0.634.
With `CC(C)CC(N(C)C)C1(c2ccc(Cl)cc2)CCC1.Cl` (stereo not shown) [Sibutramine HCl], the Ranking score under setting [3] was determined as 211.232. Moreover, the B-score functional assay (screening taurocholate uptake) is recorded as -0.386.
Consider `Nc1nc(NC2CC2)c2ncn([C@H]3C=C[C@@H](CO)C3)c2n1` [Abacavir Sulfate], for which the Ranking score under setting [1] was determined as 1184.97. Further, the B-score functional assay under setting [4] is reported as 2.371.
Turning to `CCCC1O[C@@H]2C[C@H]3[C@@H]4CCC5=CC(=O)C=C[C@]5(C)[C@H]4[C@@H](O)C[C@]3(C)[C@]2(C(=O)CO)O1` (stereo partly shown) [Budesonide], the Ranking score under setting [1] was 628.462. For the setting “screening taurocholate uptake”, this compound had a B-score functional assay of -0.64.
`O=C([O-])c1ccccc1-c1c2cc(Br)c(=O)cc-2oc2[c]([Hg+])c([O-])c(Br)cc12.[Na+].[Na+].[OH-]` [Merbromin] showed a Ranking score under setting [3] of 82.365. The compound further returned a B-score functional assay (screening taurocholate uptake) of -0.374.
Turning to `COCCOC(=O)C1=C(C)NC(C)=C(C(=O)OC/C=C/c2ccccc2)C1c1cccc([N+](=O)[O-])c1` (stereo not shown) [Cilnidipine], the Ranking score under setting [1] stood at 582.255. The same compound registered a B-score functional assay (screening taurocholate uptake) of 0.219.
On to `CN1[C@@H]2CC[C@H]1C[C@@H](OC(c1ccccc1)c1ccccc1)C2` [Benztropine mesylate], for which the Ranking score under setting [1] is recorded as 529.655. Where the note is “screening taurocholate uptake”, this compound showed a B-score functional assay of -0.008.
As to `C[N+]1(C)CCC(=C(c2ccccc2)c2ccccc2)CC1` [Diphemanil methylsulfate], the Ranking score under setting [1] is 1220.85. In addition, the B-score functional assay under setting [4] came out at 2.82.
In the case of `CN(C)CCN1C(=O)c2ccccc2N(C)c2ccccc21.Cl` [Dibenzepine hydrochloride], under setting [1], the Ranking score is recorded as 501.825. For the same compound, where the note is “screening taurocholate uptake”, the B-score functional assay was -0.713.
For the compound `Clc1cc(Cl)c(OCC#CI)cc1Cl` [Haloprogin], the Ranking score under setting [1] is reported as 1271.5. Under setting [4], this compound registered a B-score functional assay of 4.15.
With `C[C@]12CCC(=O)C=C1CC[C@@H]1[C@@H]2[C@@H](O)C[C@@]2(C)[C@H]1CC[C@]2(O)C(=O)CO` [Hydrocortisone base], the Ranking score under setting [1] amounted to 557.864. The compound further displayed a B-score functional assay (screening taurocholate uptake) of 0.004.
`O=C1NCN(c2ccccc2)C12CCN(CCCC(c1ccc(F)cc1)c1ccc(F)cc1)CC2` [Fluspirilen]: under setting [1], the Ranking score is given as 517.364. Besides, the B-score functional assay (screening taurocholate uptake) is 0.19.
As for `NC[C@H]1CC[C@H](C(=O)O)CC1` [Tranexamic acid], the Ranking score under setting [3] is reported as 255.588. For the same compound, where the note is “screening taurocholate uptake”, the B-score functional assay amounted to 0.375.
The corresponding values for `CC(=O)O[C@@]12CO[C@@H]1C[C@H](O)[C@@]1(C)C(=O)[C@H](O)C3=C(C)[C@@H](OC(=O)[C@H](O)[C@@H](NC(=O)OC(C)(C)C)c4ccccc4)C[C@@](O)([C@@H](OC(=O)c4ccccc4)[C@H]21)C3(C)C` [Docetaxel] are 106.066 and -5.513.
Take `CCC(C)(C)c1ccc(CC(C)CN2C[C@@H](C)O[C@@H](C)C2)cc1` (stereo partly shown) [Amorolfine hydrochloride]: under setting [1], the Ranking score stood at 533.183. Moreover, for the setting “screening taurocholate uptake”, the B-score functional assay is recorded as -0.84.
Taken in the same sequence, the figures for `C[C@@H]1C[C@@H]([C@H](O)CC2CC(=O)NC(=O)C2)C(=O)[C@@H](C)C1` [Cycloheximide] were 464.697 and 0.172.
With `CC(C)NCC(O)c1cc(O)cc(O)c1.CC(C)NCC(O)c1cc(O)cc(O)c1.O=S(=O)(O)O` (stereo not shown), the Ranking score under setting [1] was determined as 489.878. The B-score functional assay (screening taurocholate uptake) is given as 0.057.
As for `NC(=O)c1cnccn1` [Pyrazinamide], the Ranking score under setting [3] is 244.119. This compound also came in with a B-score functional assay (screening taurocholate uptake) of 0.065.
For `COc1ccc([C@@H]2CC(=O)c3c(O)cc(O[C@@H]4O[C@H](CO[C@@H]5O[C@@H](C)[C@H](O)[C@@H](O)[C@H]5O)[C@@H](O)[C@H](O)[C@H]4O)cc3O2)cc1O` [Hesperidin], the Ranking score under setting [1] is 580.078. Under “screening taurocholate uptake”, this compound showed a B-score functional assay of 0.91.
Under setting [3], `C[C@@H]1[C@H](O)[C@@H](C)/C=C/C=C/C=C/C=C/C=C/C=C/C=C/[C@H](O[C@@H]2O[C@H](C)[C@@H](O)[C@H](N)[C@@H]2O)C[C@@H]2O[C@](O)(C[C@@H](O)C[C@@H](O)[C@H](O)CC[C@@H](O)C[C@@H](O)CC(=O)O[C@H]1C)C[C@H](O)[C@H]2C(=O)O` [Amphotericin B] showed a Ranking score of 61.0819. Besides, where the note is “screening taurocholate uptake”, the B-score functional assay is -7.097.
With `CN(CCOc1ccc(NS(C)(=O)=O)cc1)CCc1ccc(NS(C)(=O)=O)cc1` [Dofetilide], the Ranking score under setting [1] is given as 626.449. The same compound registered a B-score functional assay (screening taurocholate uptake) of -0.213.
The corresponding values for `NCCc1c[nH]cn1` [Histamine dihydrochloride] are 536.125 and 0.779.
The compound `Nc1c2c(nc3ccccc13)CCCC2O.O=C(O)/C=C\C(=O)O` (racemic) [Hydroxytacrine maleate (R,S)] came in with a Ranking score under setting [3] of 180.3. This compound also yielded a B-score functional assay (screening taurocholate uptake) of 2.059.
On to `CC[C@H](C)[C@H]1O[C@]2(C=C[C@@H]1C)C[C@@H]1C[C@@H](C/C=C(\C)[C@@H](O[C@H]3C[C@H](OC)[C@@H](O[C@H]4C[C@H](OC)[C@@H](O)[C@H](C)O4)[C@H](C)O3)[C@@H](C)/C=C/C=C3\CO[C@@H]4[C@H](O)C(C)=C[C@@H](C(=O)O1)[C@]34O)O2` [Avermectin B1a], for which the Ranking score under setting [3] amounted to 51.7494. Under “screening taurocholate uptake”, this compound displayed a B-score functional assay of -1.314.
Consider `C[C@H](CCC(=O)O)[C@H]1CC[C@H]2[C@@H]3[C@@H](O)C[C@@H]4C[C@H](O)CC[C@]4(C)[C@H]3CC[C@]12C` [ursodeoxycholic acid, reference compound], for which the “position among the hits of the screen” value is listed as at most 150. For the same compound, the “position among the hits of the screen” value (listed as Ursodeoxycholic acid) is recorded as at most 100.
Under setting [3], `Cc1c(Nc2ncccc2C(=O)O)cccc1C(F)(F)F` [Flunixin meglumine] yielded a Ranking score of 133.828. Under “screening taurocholate uptake”, this compound displayed a B-score functional assay of -2.582.
Regarding `C[N+]1(C)CCCC(OC(=O)C(O)(c2ccccc2)c2ccccc2)C1` (stereo not shown) [Mepenzolate bromide], the Ranking score under setting [1] was determined as 545.72. For the setting “screening taurocholate uptake”, the B-score functional assay was 1.196.
`CC/C(=C(/CC)c1ccc(O)cc1)c1ccc(O)cc1` [Diethylstilbestrol] returned a Ranking score under setting [3] of 262.907. Besides, the B-score functional assay (screening taurocholate uptake) was -0.349.
On to `C=CCc1ccccc1OCC(O)CNC(C)C` (stereo not shown) [Alprenolol hydrochloride], for which the Ranking score under setting [1] came to 1166.46. The compound further had a B-score functional assay under setting [4] of 2.549.
For `CNCCCN1c2ccccc2CCc2ccccc21` [Desipramine hydrochloride], the B-score functional assay (Prestwick library screen, taurocholate uptake) was 0.022. The same compound displayed a Ranking score under setting [2] of 719.8.
With `CS(=O)(=O)O.O=C(O[C@H]1C[C@H]2CC3C[C@@H](C1)N2CC3=O)c1c[nH]c2ccccc12` [Dolasetron mesilate], the Ranking score under setting [1] was 1169.41. The same compound yielded a B-score functional assay under setting [4] of 1.844.
Take `COC(=O)Nc1nc2ccc(SC(C)C)cc2[nH]1` [Methiazole]: the Ranking score under setting [3] was 275.739. This compound also registered a B-score functional assay (screening taurocholate uptake) of -0.825.
In the case of `C[C@@H]1C[C@H]2[C@@H]3C[C@H](F)C4=CC(=O)C=C[C@]4(C)[C@@]3(Cl)[C@@H](O)C[C@]2(C)[C@H]1C(=O)COC(=O)C(C)(C)C` [Clocortolone pivalate], the Ranking score under setting [1] turned out to be 1150.27. Besides, under setting [4], the B-score functional assay came to 4.298.
